The values below come from article PMC6172212, “Structural Analysis of Inhibitor Binding to CAMKK1 Identifies Features Necessary for Design of Specific Inhibitors” (Scientific Reports, 2018).

Read-outs that look alike come from different tables or passages of the source.

What is called Kd is the concentration at which binding is half-saturated. For orientation: IC50 means the concentration that inhibits the measured activity by half. The ΔTm is the shift of the melting midpoint relative to a reference.

In experiment [1] the target is T1, CAMKK1 kinase domain (CAMKK1-KD) (Homo sapiens, UniProt Q8N5S9).
T1 construct: The kinase domain (Gln124 to Lys411) was amplified using the primers; 6xHis (TEV-cleavable) (N, cleaved yes); made in house; host or cells: Escherichia coli BL21(DE3)-R3 co-expressing λ-phosphatase
T1 sequence (Q8N5S9 124-411): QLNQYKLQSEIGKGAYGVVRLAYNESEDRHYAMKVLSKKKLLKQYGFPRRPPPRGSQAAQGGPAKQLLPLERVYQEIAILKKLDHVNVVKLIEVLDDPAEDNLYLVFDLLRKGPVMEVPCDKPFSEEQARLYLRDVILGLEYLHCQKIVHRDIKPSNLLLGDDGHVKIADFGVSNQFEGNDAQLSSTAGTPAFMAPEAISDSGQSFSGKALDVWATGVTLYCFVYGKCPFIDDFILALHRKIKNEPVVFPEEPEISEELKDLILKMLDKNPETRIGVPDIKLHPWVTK
In words: Isothermal titration calorimetry (ITC) with CAMKK1-KD. In kind it is binding. The following applies: for ΔH: ITC at 20 °C, binding enthalpy. On the procedure:
Measurements were made using a MicroCal AutoiITC200 (Malvern, United Kingdom), at 20 °C with 1000 rpm stirring. For all measurements CAMKK1-KD protein was dialysed overnight against gel filtration buffer, and the dialysis buffer was used to dilute the inhibitors. CAMKK1-KD protein was titrated into a solution containing the inhibitor. […] ITC data was analysed with NITPIC, and SEDPHAT; figures were made using GUSSI[30].
A general note: ITC needs no label: the signal is the heat of the interaction.

The target in experiment [2] is T2, full length CAMKK1 (CAMKK1-FL) (Homo sapiens, UniProt Q8N5S9).
T2 construct: made in house; host or cells: Spodoptera frugiperda Sf9 insect cells (baculovirus)
Briefly: IC50 determination by TR-FRET enzymatic assay with CAMKK1-FL in the presence of Ca2+/calmodulin. The experiment is classed as biochemical. On the procedure:
Final assay concentrations of the components of the enzyme mix were 5 nM CAMKK1-FL, 1 µM calmodulin, 1 mM CaCl2, 5 mM MgCl2, 1 mM DTT. Final concentrations of ATP and peptide were 100 µM ATP, 1 µM peptide (STK substrate S1). The inhibitor solutions were prepared starting from 10 mM solutions in DMSO, diluted in enzymatic assay buffer to 200 or 100 µM, and then a 2x serial dilution in enzymatic assay buffer was performed, yielding the serially diluted inhibitors at 2.5x final concentration. […] For detection, 5 µL of streptavidin-XL665, and 5 µL of antibody-Eu-cryptate were added. […] Data was analysed in GraphPad PRISM version 7.
On the technique in general: In TR-FRET formats the signal depends on donor and acceptor labels being close together.

Experiment [3] addresses T3, CAMKK1 kinase domain (CAMKK1-KD, Gln124-Lys411) (Homo sapiens, UniProt Q8N5S9).
T3 construct: The kinase domain (Gln124 to Lys411) was amplified using the primers; 6xHis (TEV-cleavable) (N, cleaved yes); made in house; host or cells: Escherichia coli BL21(DE3)-R3 co-expressing λ-phosphatase
Briefly: Differential scanning fluorimetry (DSF) screen of a kinase inhibitor library against CAMKK1-KD. The experiment is classed as binding. The protocol:
DSF measurements were made in a 384-well plate.
The compounds, previously solubilized in DMSO, were used at 10 µM final concentration and 0.1% DMSO. Plates were sealed using optically clear films and transferred to a QuantStudio 6 qPCR instrument (Applied Biosystems). […] Protein in 0.1% DMSO was used as a reference.
For orientation: Differential scanning fluorimetry follows unfolding on heating by fluorescence.

The test system of experiment [4] is CAMKK2. More on the design: concentration or dose not given beside the values. The following applies: supplement; ref Anastassiadis et al. (2011); cited from earlier work.
Experiment [5] relates to CAMKK1. More on the design: concentration or dose not given beside the values. The note with it: supplement; ref Anastassiadis et al. (2011); cited from earlier work.
[6] abbreviates: DSF, 1 μM CAMKK1-KD, compound 10 µM, mean and standard error from triplicate measurements, read-out: ΔTm (°C) CAMKK1.
The mark [7] stands for this setting: DSF, CAMKK1-KD, compound 10 µM, repeated in Table 3, read-out: ΔTm (°C).
[8] abbreviates: DSF, 1 μM CAMKK1-KD, compound 10 µM, supplement, read-out: Mean ΔTm (°C).

T3 sequence (Q8N5S9 124-411): as above

`COc1cc(N2CCC(N3CCN(C)CC3)CC2)ccc1Nc1ncc(Cl)c(Nc2ccccc2P(C)(C)=O)n1` [AP26113]: in experiment [1], binding was put at a Kd of 0.045 µM and the “ΔH” value was -9.11 kcal/mol. The half-inhibitory concentration (IC50) in experiment [2] amounted to 0.089 µM. The shift in melting temperature (ΔTm) at 10 µM in experiment [3] (setting [6]) is 8.2 ± 0.6 °C. Also, the ΔTm at 10 µM in experiment [3] (setting [7]) came out at 8.2 ± 0.6 °C.

For `COCCOc1ccc2c(c1)ncn2-c1ccc2cccc(N3CCC(N)CC3)c2n1` [CP-673451], in experiment [1], binding was put at a Kd of 0.007 µM. Further, the IC50 in experiment [2] turned out to be 0.101 µM. Also, the ΔTm at 10 µM in experiment [3] (setting [6]) and in experiment [3] (setting [7]) was 14.4 ± 0.9 °C each time.

In the case of `CC1(COc2ccc3c(c2)ncn3-c2ccc3cccc(N4CCC(N)CC4)c3n2)COC1` [Crenolanib (CP-868596), Crenolanib], in experiment [1], the equilibrium dissociation constant (Kd) came out at 0.004 µM. For the same compound, the “ΔH” value in experiment [1] is -10.9 kcal/mol. For the same compound, the 50% inhibitory concentration (IC50) in experiment [2] worked out at 0.153 µM. Besides, the thermal shift (ΔTm) at 10 µM in experiment [3] (setting [6]) and in experiment [3] (setting [7]) was 13.6 ± 0.6 °C throughout.

For the compound `CN1CCN(c2ccc3nc(-c4c(N)c5c(F)cccc5[nH]c4=O)[nH]c3c2)CC1` [Dovitinib (TKI-258) Dilactic Acid, Dovitinib], the “Remaining activity (%) from Anastassiadis et al. (2011) CAMKK2” value (“Remaining activity (%) … (2011) CAMKK2” for short) in experiment [4] was 86%. The “Remaining activity (%) from Anastassiadis et al. (2011) CAMKK1” value (“Remaining activity (%) … (2011) CAMKK1” for short) in experiment [5] is recorded as 49%. In experiment [3] (setting [8]), the ΔTm at 10 µM is 5.7 °C.

Regarding `O=C(O)c1ccc(-c2c[nH]c3ncc(-c4ccccc4)cc23)cc1C1CCCC1` [GSK650394], in experiment [1], the “ΔH” value was -20.5 kcal/mol. The ΔTm at 10 µM in experiment [3] (setting [6]) and in experiment [3] (setting [7]) was 16.1 ± 0.8 °C in each case.

As for `CCS(=O)(=O)Nc1ccc2c(c1)/C(=C(/Nc1ccc(CN3CCCCC3)cc1)c1ccccc1)C(=O)N2` [Hesperadin], in experiment [1], binding was characterised by a dissociation constant (Kd) of 0.026 µM and the “ΔH” value was -14.1 kcal/mol. Moreover, the IC50 in experiment [2] was 0.107 µM. In addition, the ΔTm at 10 µM in experiment [3] (setting [6]) came out at 7 ± 0.8 °C. The ΔTm at 10 µM in experiment [3] (setting [7]) was 7 ± 0.8 °C.

`Cc1ccc(Nc2nccc(N(C)c3ccc4c(C)n(C)nc4c3)n2)cc1S(N)(=O)=O` [Pazopanib]: the “Remaining activity (%) … (2011) CAMKK2” value in experiment [4] is 98%. Moreover, the “Remaining activity (%) … (2011) CAMKK1” value in experiment [5] is reported as 72%.

On to `CNC(=O)c1cc(Oc2ccc(NC(=O)Nc3ccc(Cl)c(C(F)(F)F)c3)cc2)ccn1` [Sorafenib], for which the “Remaining activity (%) … (2011) CAMKK2” value in experiment [4] is 103%. Further, in experiment [5], the “Remaining activity (%) … (2011) CAMKK1” value is 103%. Also, the thermal shift (ΔTm) at 10 µM in experiment [3] (read-out: Mean ΔTm (°C)) was 2.5 °C.

In the case of `CCN(CC)CCNC(=O)c1c(C)[nH]c(/C=C2\C(=O)Nc3ccc(F)cc32)c1C` [Sunitinib Malate], the “Remaining activity (%) … (2011) CAMKK2” value in experiment [4] is 65%. Moreover, the “Remaining activity (%) … (2011) CAMKK1” value in experiment [5] is 52%.

Take `Cc1cc(Nc2cc(N3CCN(C)CC3)nc(Sc3ccc(NC(=O)C4CC4)cc3)n2)[nH]n1` [VX-680 (Tozasertib), Tozasertib]: the “Remaining activity (%) … (2011) CAMKK1” value in experiment [5] is on record as 86%. In experiment [3] (setting [8]), the ΔTm at 10 µM was determined as 3.4 °C.

In the case of `COc1cc2c(Nc3ccc(Br)cc3F)ncnc2cc1OCC1CCN(C)CC1` [Vandetanib (ZD6474), Vandetanib], the “Remaining activity (%) … (2011) CAMKK2” value in experiment [4] is on record as 102%. For the same compound, the “Remaining activity (%) … (2011) CAMKK1” value in experiment [5] is reported as 90%.
